Assay results: ChEMBL document CHEMBL3616389, “Identification of Novel D-Aspartate Oxidase Inhibitors by in Silico Screening and Their Functional and Structural Characterization in Vitro” (J Med Chem, 2015)
Active and inactive are the calls of the source. No cut-off for these calls is given here.

What was measured:
D-aspartate oxidase [1] = target: T1, D-aspartate oxidase (Homo sapiens, UniProt Q99489); experiment: Inhibition of human recombinant DDO expressed in Escherichia coli BL21(DE3) using D-Asp and D-Ala assessed as 2-oxo acid production after 10 mins by colorimetric assay
T1 sequence (Q99489 whole entry): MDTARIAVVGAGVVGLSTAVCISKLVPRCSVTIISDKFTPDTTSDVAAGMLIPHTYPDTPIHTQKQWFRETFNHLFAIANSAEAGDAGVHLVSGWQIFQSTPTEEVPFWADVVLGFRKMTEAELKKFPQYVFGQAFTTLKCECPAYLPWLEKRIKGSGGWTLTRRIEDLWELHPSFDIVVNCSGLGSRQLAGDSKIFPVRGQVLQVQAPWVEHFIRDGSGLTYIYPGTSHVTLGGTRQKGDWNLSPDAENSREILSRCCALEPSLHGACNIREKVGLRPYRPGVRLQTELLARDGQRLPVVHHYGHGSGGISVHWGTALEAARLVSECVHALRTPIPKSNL

D-amino-acid oxidase = D-amino-acid oxidase (Homo sapiens, UniProt P14920); experiment: Inhibition of human recombinant DAO expressed in Escherichia coli BL21(DE3) using D-Asp and D-Ala assessed as 2-oxo acid production after 10 mins by colorimetric assay
[2] = target: T2, D-aspartate oxidase (Homo sapiens) (UniProt Q99489); details: HeLa, 250 uM
T2 sequence (whole entry): T1 sequence (Q99489 whole entry)

D-aspartate oxidase [3] = target: T3, D-aspartate oxidase (Rattus norvegicus, UniProt D3ZDM7); experiment: (§1) Inhibition of rat recombinant DDO using D-Asp
T3 sequence (D3ZDM7 whole entry): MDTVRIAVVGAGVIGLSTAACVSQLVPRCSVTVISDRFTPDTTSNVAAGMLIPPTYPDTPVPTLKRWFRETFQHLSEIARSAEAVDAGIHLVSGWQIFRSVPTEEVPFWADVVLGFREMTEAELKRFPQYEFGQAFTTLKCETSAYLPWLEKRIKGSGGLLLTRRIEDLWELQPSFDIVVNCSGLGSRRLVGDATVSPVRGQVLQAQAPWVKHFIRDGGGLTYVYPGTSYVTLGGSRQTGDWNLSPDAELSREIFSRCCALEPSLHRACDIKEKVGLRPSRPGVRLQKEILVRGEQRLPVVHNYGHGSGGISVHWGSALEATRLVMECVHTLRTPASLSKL

[4] = target: T4, D-aspartate oxidase (Rattus norvegicus) (UniProt D3ZDM7); experiment: as §1
T4 sequence (whole entry): T3 sequence (D3ZDM7 whole entry)

[5] = target: T2, D-aspartate oxidase (Homo sapiens); details: HeLa, 250 uM; remark: listed apart in the source
D-aspartate oxidase [6] = target: T1, D-aspartate oxidase
D-aspartate oxidase [7] = target: T5, D-aspartate oxidase (Mus musculus, UniProt Q922Z0); experiment: Inhibition of mouse recombinant DDO using D-Asp
T5 sequence (Q922Z0 whole entry): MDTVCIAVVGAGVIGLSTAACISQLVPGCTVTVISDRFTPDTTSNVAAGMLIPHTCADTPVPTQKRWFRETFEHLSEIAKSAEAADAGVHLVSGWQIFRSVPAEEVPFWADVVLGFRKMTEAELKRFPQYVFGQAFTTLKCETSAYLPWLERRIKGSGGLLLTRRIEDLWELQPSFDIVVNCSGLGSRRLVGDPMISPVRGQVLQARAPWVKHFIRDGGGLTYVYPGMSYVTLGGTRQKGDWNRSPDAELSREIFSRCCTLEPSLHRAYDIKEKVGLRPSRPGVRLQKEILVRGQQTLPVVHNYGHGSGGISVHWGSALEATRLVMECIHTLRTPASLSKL

[8] = target: T2, D-aspartate oxidase (Homo sapiens); details: HeLa, 250 uM; remark: listed apart in the source
[9] = target: T2, D-aspartate oxidase (Homo sapiens); experiment: Competitive inhibition of human recombinant DDO expressed in Escherichia coli BL21(DE3) using D-Asp by Lineweaver-Burk plot analysis
HeLa [10] = experiment: Effect on L-Asp level in human HeLa cells at 250 uM after 24 hrs by HPLC analysis; type: functional, cell-based
HeLa [11] = experiment: Effect on L-Asp level in human HeLa cells at 1000 uM after 24 hrs by HPLC analysis; type: functional, cell-based
HeLa [12] = experiment: Effect on D-Asp level in human HeLa cells at 1000 uM after 24 hrs by HPLC analysis; type: functional, cell-based
[13] = target: T2, D-aspartate oxidase (Homo sapiens); details: HeLa, 1000 uM
[14] = target: T2, D-aspartate oxidase (Homo sapiens); details: HeLa, 1000 uM; remark: listed apart in the source
HeLa [15] = experiment: Effect on L-Asp level in human HeLa cells at 100 uM after 24 hrs by HPLC analysis; type: functional, cell-based
HeLa [16] = experiment: Effect on D-Asp level in human HeLa cells at 100 uM after 24 hrs by HPLC analysis; type: functional, cell-based

Chain of D-amino-acid oxidase (P14920 whole entry): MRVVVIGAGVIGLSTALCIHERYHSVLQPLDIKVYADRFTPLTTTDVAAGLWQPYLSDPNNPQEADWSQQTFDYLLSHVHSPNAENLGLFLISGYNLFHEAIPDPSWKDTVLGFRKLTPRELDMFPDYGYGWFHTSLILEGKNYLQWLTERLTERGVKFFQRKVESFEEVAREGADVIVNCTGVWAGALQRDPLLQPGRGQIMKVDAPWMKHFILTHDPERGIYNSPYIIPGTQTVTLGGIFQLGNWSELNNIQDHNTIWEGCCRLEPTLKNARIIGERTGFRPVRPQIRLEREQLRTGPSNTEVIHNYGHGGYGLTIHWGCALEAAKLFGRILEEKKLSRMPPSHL

| IC50 (D-aspartate oxidase [1]) [µM] | IC50 (D-amino-acid oxidase) [µM] | SMILES | further results |
| --- | --- | --- | --- |
| > 10000 |  | O=C(O)c1cncc(F)c1 [5-FLUORONICOTINIC ACID] |  |
| > 1000 | > 1000 | Nc1ncccc1C(=O)O |  |
| > 100 | > 100 | Nc1cc(C(=O)O)ccn1 |  |
| > 1000 |  | CN(C)c1cncc(C(=O)O)c1 |  |
| > 10000 |  | O=C(O)c1cncc(Br)c1 |  |
| 4250 | 1440 | Cc1cc(C(=O)O)c(N)s1 |  |
| 2780 | 1130 | O=C(O)c1cccnc1 [NIACIN] |  |
| > 100 | > 100 | Nc1ccncc1C(=O)O |  |
| > 10000 | > 10000 | Nc1ccc(C(=O)O)nc1 |  |
| > 5000 | 347 | NC(=O)c1csc(C(=O)O)c1 |  |
| 2360 | > 2500 | Nc1ccc(C(=O)O)cn1 |  |
| > 100 | > 100 | Nc1ccnc(C(=O)O)c1 |  |
| > 10000 |  | O=C(O)c1cncc(Cl)c1 |  |
| > 10000 | 392 | Nc1cccc(C(=O)O)c1 [3-AMINOBENZOIC ACID] |  |
| > 10000 | 3670 | O=C(O)c1cc(Cl)ccc1O [5-CHLOROSALICYLIC ACID] |  |
| > 10000 |  | O=C(O)c1cncc([N+](=O)[O-])c1 |  |

| IC50 (D-aspartate oxidase [1]) [µM] | IC50 (D-amino-acid oxidase) [µM] | SMILES | further results |
| --- | --- | --- | --- |
| > 100 | > 100 | Nc1cccc(C(=O)O)n1 |  |
| 5470 | 1500 | Cc1cncc(C(=O)O)c1 |  |
| > 1000 | 1.34 | O=C(O)c1cc2ccccc2n1O |  |
| 879 | > 10000 | O=C(O)CC(=O)O [MALONIC ACID] | Ki (D-aspartate oxidase [3]): 1560 µM; Activity (HeLa [11]): inactive; Ki (D-aspartate oxidase [6]): 153 µM; Ki (D-aspartate oxidase [7]): 1220 µM; Activity (HeLa [12]): inactive; inhibition [13]: inactive; inhibition [9]: Active; inhibition [14]: inactive |
| > 10000 | > 10000 | Cc1ccc(C(=O)O)c(O)n1 |  |
| > 5000 |  | O=C(O)c1cncc(-c2ccccc2)c1 |  |
| > 10000 | 2480 | O=C(O)c1ncccc1O |  |
| > 10000 |  | O=C(O)c1cncc(C(F)(F)F)c1 |  |
| > 5000 | > 5000 | Nc1cnccc1C(=O)O |  |
| > 10000 |  | COc1cncc(C(=O)O)c1 |  |
| 3540 | > 10000 | CNc1cncc(C(=O)O)c1 |  |
| > 10000 |  | O=C(O)c1cncc(C(=O)O)c1 |  |
| > 10000 | 1050 | O=C(O)c1cc(F)ccc1O |  |
| > 1000 | > 1000 | Nc1cccnc1C(=O)O |  |
| > 10000 |  | O=C(O)c1cncc(S(=O)(=O)O)c1 |  |

| SMILES | IC50 (D-aspartate oxidase [1]) [µM] | IC50 (D-amino-acid oxidase) [µM] | further results |
| --- | --- | --- | --- |
| O=C(O)c1cncc(O)c1 | 3350 | > 10000 |  |
| Nc1ccc(Cl)cc1C(=O)O | > 10000 | 3930 |  |
| Nc1cncc(C(=O)O)c1 | 21.9 | > 2500 | inhibition [2]: Active; Ki (D-aspartate oxidase [3]): 5.89 µM; inhibition [4]: Dose-dependent effect; inhibition [5]: Active; Ki (D-aspartate oxidase [6]): 3.8 µM; Ki (D-aspartate oxidase [7]): 8.69 µM; inhibition [8]: inactive; inhibition [9]: Active; Activity (HeLa [10]): inactive |
| O=C(O)c1ccccc1 [BENZOIC ACID] | > 10000 | 134 |  |
| O=C(O)c1cn2cnnc2nc1O |  | > 500 | Activity (HeLa [15]): inactive; Ki (D-aspartate oxidase [3]): 65.9 µM; inhibition [4]: Dose-dependent effect; Activity (HeLa [16]): inactive; Ki (D-aspartate oxidase [7]): 32.6 µM |
| Nc1cccnc1 | > 10000 | > 10000 |  |
